pIC50: −log10 of the molar value. Active and inactive are the calls of the source. No cut-off for these calls is given here.
Experiments:
Schistosoma mansoni [1] = test: Antischistosomal activity against newly transformed Schistosoma mansoni cercariae assessed as decrease in viability after 72 hrs by microscopic analysis; type: functional, organism-based
Schistosoma mansoni [2] = test: Antischistosomal activity against adult Schistosoma mansoni assessed as decrease in viability after 72 hrs by microscopic analysis; type: functional, organism-based
L6 = test: Cytotoxicity against rat L6 cells assessed as decrease in cell viability after 72 hrs by resazurin dye based fluorescence analysis; details: for pIC50: Rattus norvegicus, L6, 72 h; for Activity: rat, l6, 72 h
[3] = Selectivity index, ratio of IC50 for rat L6 cells to IC50 for adult Schistosoma mansoni
Schistosoma mansoni [4] = test: Antischistosomal activity against Schistosoma mansoni strain Liberian cercariae infected in NMRI mouse assessed as reduction of worm burden in portal and mesenteric veins and liver at 400 mg/kg, po treated after 49 days of infection measured 16 to 21 days post treatment; type: functional
Schistosoma mansoni [5] = test: Antischistosomal activity against newly transformed Schistosoma mansoni cercariae assessed as decrease in viability at 12.5 ug/ml after 72 hrs by microscopic analysis; type: functional, organism-based
Schistosoma mansoni [6] = test: Antischistosomal activity against adult Schistosoma mansoni assessed as decrease in viability at 25 ug/ml after 72 hrs by microscopic analysis; type: functional, organism-based

Compound	pIC50 (Schistosoma mansoni [1])	pIC50 (Schistosoma mansoni [2])	pIC50 (L6)	Ratio IC50 [3]	inhibition in vivo at 400 mg/kg (Schistosoma mansoni [4])	inhibition (Schistosoma mansoni [5])	Activity (L6)	inhibition (Schistosoma mansoni [6])
CC(=O)[C@@]1(Cc2ccc(C)cc2)CC[C@]2(C)OO[C@@]1(C)O2	4.91	5.13	4.82	7.4	9.9%	–	–	–
CC(C)C[C@@]12OO[C@]3(C)OC(C)(CCC31)O2	5.70	5.70	5.31	3	0%	–	–	–
CC(=O)[C@]1(Cc2ccc(C)cc2)CC[C@]2(C)OO[C@@]1(C)O2	–	5.00	–	–	–	inactive	Non-toxic	–
CCCC[C@]1(C(C)=O)CCC2(C)OOC1(C)O2 (single isomer, unassigned)	–	4.91	–	–	–	inactive	Non-toxic	–
CC(=O)[C@@]1(Cc2ccccc2)CC[C@]2(C)OO[C@@]1(C)O2	5.25	4.99	–	–	–	–	Non-toxic	–
CC(C)C[C@]12OO[C@](C)(OO1)C2C12CC3CC(CC(C3)C1)C2 (some centres undefined)	6.05	5.74	6.00	0.5	–	–	–	–
CC(=O)CCC1(Cc2ccc(C)cc2)[C@]2(C)OO[C@@]1(C)OO2 (some centres undefined)	5.28	5.01	5.60	0.3	–	–	–	–
CC(=O)CCC1(Cc2ccccc2)[C@]2(C)OO[C@@]1(C)OO2 (some centres undefined)	5.80	4.96	–	–	–	–	Non-toxic	–
C[Si]1(C)CC[Si](C)(C)OOC2(CCCCCCCCCCC2)OO1	5.14	–	–	–	–	–	Non-toxic	inactive
CC(=O)[C@]1(Cc2ccc(Br)cc2)CC[C@]2(C)OO[C@@]1(C)O2	5.21	5.18	5.14	1.1	–	–	–	–
CC[C@]12OO[C@@]3(CC(C)C)OC(C)(CCC31)O2	5.57	5.36	4.61	5.7	26.7%	–	–	–
CC(=O)[C@]1(Cc2ccccc2)CC[C@]2(C)OO[C@@]1(C)O2	6.40	5.74	5.27	2.9	6.2%	–	–	–
CC(=O)[C@@]1(Cc2ccc(Br)cc2)CC[C@]2(C)OO[C@@]1(C)O2	5.66	5.38	5.09	1.6	44.3%	–	–	–
CC(=O)CCC1(Cc2ccc(Cl)cc2)[C@]2(C)OO[C@@]1(C)OO2 (some centres undefined)	5.46	4.81	–	–	–	–	Non-toxic	–
CC[C@]12C[C@](C34CC5CC(CC(C5)C3)C4)(OO1)OO2	5.74	5.70	> 6.40	<0.2	–	–	–	–
C[C@]12C[C@](C34CC5CC(CC(C5)C3)C4)(OO1)OO2	5.89	5.70	> 6.40	<0.2	–	–	–	–
CC(=O)[C@]1(Cc2ccc([N+](=O)[O-])cc2)CC[C@]2(C)OO[C@@]1(C)O2	5.24	5.15	4.64	1.7	–	–	–	–
CC(=O)[C@@]1(Cc2ccc(Cl)cc2)CC[C@]2(C)OO[C@@]1(C)O2	5.49	4.95	–	–	–	–	Non-toxic	–
CC(C)(C)C1CCC2(CC1)OO[Si](C)(C)CC[Si](C)(C)OO2	5.40	–	–	–	–	–	Non-toxic	inactive
CC(=O)CCC1(Cc2ccc(Br)cc2)[C@]2(C)OO[C@@]1(C)OO2 (some centres undefined)	5.89	5.08	5.60	0.4	–	–	–	–
CC1[C@]2(C)OO[C@@]1(C13CC4CC(CC(C4)C1)C3)OO2 (some centres undefined)	5.40	5.41	> 6.40	<0.1	–	–	–	–
CC(=O)[C@]1(Cc2ccc(Cl)cc2)CC[C@]2(C)OO[C@@]1(C)O2	5.55	5.38	5.57	1.3	42.9%	–	–	–
CC(=O)[C@@]1(Cc2ccc([N+](=O)[O-])cc2)CC[C@]2(C)OO[C@@]1(C)O2	5.11	4.64	–	–	–	–	Non-toxic	–
